Our source for the IC50 values is patent US20220142995A1, “DUAL ATM AND DNA-PK INHIBITORS FOR USE IN ANTI-TUMOR THERAPY” (XRAD Therapeutics, Inc., priority 2019, published 2022).

Assay [1] concerns the target T1, DNA-PK (Homo sapiens, UniProt P78527).
T1 construct: purchased Invitrogen PR9107A
The assay is described as follows: DNA-PK enzyme-linked immunosorbent assay. The assay is classed as biochemical. Particulars: ATP 20 μM, GST-p53 substrate. The procedure:
DNA-PK Enzyme-Linked Immunosorbent Assay:
On day one, a 96-well plate (ThermoFisher, Cat #: 442404) was coated with GST-p53 (1-101) peptide (purified by Pharmaron, BCS department) by diluting 3 μg of GST-p53 in each well with 0.1 M Na2CO3/NaHCO3 (pH 9.6). The plate was incubated overnight at 4° C. On the second day, the coating buffer was removed, and the plate was washed twice with PBST (1×PBS containing 0.1% Tween-20). The DNA-PK enzyme solution (Invitrogen, #PR9107A; the final DNA-PK concentration: 0.1 μg/mL) was then added. The compounds were serially diluted to the final maximal concentration of 100 nM (3 fold series dilution, a total of 10 doses), and an ATP solution (the final ATP concentration: 20 μM) was added to the plate. Incubate the plate at 25° C. for 1 hour. The plate was washed three times with PBST (1×PBS containing 0.1% Tween-20) and blocked with a solution of PBST and 1% BSA at 4° C. overnight. The third day, the plate was washed four times with PBST (1×PBS containing 0.1% Tween-20). Anti-phospho-p53 primary antibody (cell signaling Technology, #9286, Phospho-p53 (Ser15) (16G8) Mouse mAb) (1/1000) was added to each well. The plate was sealed, incubated 1 h at 37° C., and washed four times with PBST (1×PBS containing 0.1% Tween-20). An HRP-linked secondary antibody (Cell signaling Technology, #7076, Anti-mouse IgG, HRP-linked Antibody) (1/1000) (100 μL) was added to each well. The plate was sealed with tape, incubated 30 min at 37° C., and washed four times with PBST (1×PBS containing 0.1% Tween-20). At this time, 100 μL of TMB (Cell signaling Technology, #7004) substrate were added to each well. The plate was sealed with tape and incubated the plate 10 min at 37° C. Stop solution (Cell signaling Technology, #7002) (100 μL) was added to each well, and the plate was subjected to the absorption detection at 450 nm.

Assay [2] concerns the target T2, PI3Kα (Homo sapiens, UniProt P42336).
T2 construct: purchased ThermoFisher PV4788
Kind of assay: PI3Kα biochemical assay (ADP-Glo). As to conditions: first value of PI3K-α/δ cell; ATP 10 μM. The procedure: PI3Kα and PI3Kδ Biochemical Assay:
PI3K[…] and PI3K[…] Kinase reactions were performed in a 5 μL volume in low-volume 384-well plates. Typically, PerkinElmer model 6008280 plates were used. The 1× kinase reaction buffer consisted of 50 mM HEPES pH 7.5, 3 mM MgCl2, 0.03% CHAPS, 1 mM EGTA, 100 mM NaCl, and 2 mM DTT. PI3K[…] (ThermoFisher, #PV4788; the final PI3K[…] concentration: 120 ng/mL) or PI3K[…] enzyme solution (ThermoFisher, #PV6451; the final PI3K[…] concentration: 250 ng/mL) was added to the plate, compounds were serially diluted to the final maximal concentration of 100 nM (3 fold series dilution, a total of 10 doses), and the PIP2:3PS (the final concentration: 10 µg/mL) and ATP solution (the final ATP concentration: 10 μM) was added to the 384-well plate. The plate was incubated at 25° C. for 1 hour. ADP-Glo reagent buffer (5 μL) was added to each well. The plate was sealed and incubated for 40 min at 25° C. ADP-Glo detection buffer (10 μL) was added to each well, and the plate was incubated for 40 min at 25° C. and read on a plate reader configured for Luminescence.
For orientation: In ADP-Glo the light output rises with the ADP produced.

For assay [3], the target named is T3, mTOR (Homo sapiens, UniProt P42345).
T3 construct: purchased ThermoFisher PR8683B
The assay is described as follows: mTOR biochemical assay (LanthaScreen TR-FRET). As to conditions: ATP 3 μM, maximal concentration 100 nM. The procedure:
mTOR Kinase reactions were performed in a 10 μL volume in low-volume 384-well plates. Typically, PerkinElmer model 6008260 plates were used. The composition of the 1× kinase reaction buffer was: 50 mM HEPES pH 7.5, 0.01% Tween 20, 1 mM EGTA, 10 mM MnCl2, and 2 mM DTT. The solution of mTOR enzyme (ThermoFisher, #PR8683B; the final mTOR concentration: 0.5 μg/mL) was added, and the compounds were serially diluted to the final maximal concentration of 100 nM (3 fold series dilution, a total of 10 doses). GFP-4E-BP1 (the final concentration: 0.4 μM) and the ATP solution (the final ATP concentration: 3 μM) were added to the 384-well plate. The plate was incubated at 25° C. for 1 hour, and 10 μL of the EDTA solution (20 mM) and Tb-labeled anti-p4E-BP1 antibody (4 nM) in TR-FRET dilution buffer were added to each well. The plate was sealed, incubated 30 min at 25° C., and read on a plate reader configured for LanthaScreen™ TRFRET.
In general terms: In TR-FRET formats the signal depends on donor and acceptor labels being close together.

Molecules are shown by their SMILES. Several values for one entry are separate records, joined by “and”; a condition that tells them apart may be missing. Equal values may be shown once. Where a name gives a salt, the structure may show the parent alone.

T2 sequence (P42336 whole entry): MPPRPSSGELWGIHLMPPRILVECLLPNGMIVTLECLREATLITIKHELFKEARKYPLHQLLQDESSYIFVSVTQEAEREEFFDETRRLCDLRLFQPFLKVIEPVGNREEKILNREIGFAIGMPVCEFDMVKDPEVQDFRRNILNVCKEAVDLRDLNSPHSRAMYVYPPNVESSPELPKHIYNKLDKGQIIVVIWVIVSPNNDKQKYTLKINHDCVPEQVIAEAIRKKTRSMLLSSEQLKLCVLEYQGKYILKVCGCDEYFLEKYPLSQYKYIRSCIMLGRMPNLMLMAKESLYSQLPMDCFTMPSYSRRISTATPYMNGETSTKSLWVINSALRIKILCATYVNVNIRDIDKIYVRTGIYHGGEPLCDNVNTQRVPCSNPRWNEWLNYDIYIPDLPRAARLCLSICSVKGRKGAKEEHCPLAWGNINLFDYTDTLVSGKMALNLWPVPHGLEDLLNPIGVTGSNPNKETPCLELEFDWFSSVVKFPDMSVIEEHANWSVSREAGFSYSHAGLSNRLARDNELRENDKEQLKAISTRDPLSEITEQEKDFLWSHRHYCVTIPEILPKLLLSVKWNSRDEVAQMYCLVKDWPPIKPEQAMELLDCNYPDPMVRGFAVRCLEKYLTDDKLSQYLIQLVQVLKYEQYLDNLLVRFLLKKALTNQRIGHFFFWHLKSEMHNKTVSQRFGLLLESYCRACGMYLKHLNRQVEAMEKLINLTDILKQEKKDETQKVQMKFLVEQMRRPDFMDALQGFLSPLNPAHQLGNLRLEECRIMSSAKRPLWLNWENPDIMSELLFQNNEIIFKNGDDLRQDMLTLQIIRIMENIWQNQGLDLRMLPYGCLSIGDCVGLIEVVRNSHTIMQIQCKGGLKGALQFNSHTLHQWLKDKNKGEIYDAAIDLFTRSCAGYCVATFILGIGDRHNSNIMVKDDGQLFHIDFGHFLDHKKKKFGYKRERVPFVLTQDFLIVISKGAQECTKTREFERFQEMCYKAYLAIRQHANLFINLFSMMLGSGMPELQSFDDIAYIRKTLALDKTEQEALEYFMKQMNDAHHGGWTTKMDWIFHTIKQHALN
T2 sequence (P27986 whole entry partner): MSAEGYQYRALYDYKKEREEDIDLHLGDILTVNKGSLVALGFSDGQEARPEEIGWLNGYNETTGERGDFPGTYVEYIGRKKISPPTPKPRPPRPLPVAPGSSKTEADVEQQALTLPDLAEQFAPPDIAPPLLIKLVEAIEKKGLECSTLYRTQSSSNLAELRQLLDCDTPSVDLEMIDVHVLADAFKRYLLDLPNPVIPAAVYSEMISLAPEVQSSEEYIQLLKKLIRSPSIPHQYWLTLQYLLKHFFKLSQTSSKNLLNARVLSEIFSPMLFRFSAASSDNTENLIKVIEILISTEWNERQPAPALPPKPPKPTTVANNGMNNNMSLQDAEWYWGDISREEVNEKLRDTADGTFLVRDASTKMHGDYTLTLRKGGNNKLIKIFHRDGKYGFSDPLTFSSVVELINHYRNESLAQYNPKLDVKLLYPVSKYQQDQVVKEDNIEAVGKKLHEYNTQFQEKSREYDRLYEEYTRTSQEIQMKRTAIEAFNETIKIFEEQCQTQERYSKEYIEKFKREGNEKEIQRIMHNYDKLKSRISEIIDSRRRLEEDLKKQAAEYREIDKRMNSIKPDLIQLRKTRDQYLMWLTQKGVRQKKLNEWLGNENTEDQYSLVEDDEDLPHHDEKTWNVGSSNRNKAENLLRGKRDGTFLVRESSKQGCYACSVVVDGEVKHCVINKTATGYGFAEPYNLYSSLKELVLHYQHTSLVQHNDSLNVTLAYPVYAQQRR
T3 sequence (P42345 1360-2549 limits assumed): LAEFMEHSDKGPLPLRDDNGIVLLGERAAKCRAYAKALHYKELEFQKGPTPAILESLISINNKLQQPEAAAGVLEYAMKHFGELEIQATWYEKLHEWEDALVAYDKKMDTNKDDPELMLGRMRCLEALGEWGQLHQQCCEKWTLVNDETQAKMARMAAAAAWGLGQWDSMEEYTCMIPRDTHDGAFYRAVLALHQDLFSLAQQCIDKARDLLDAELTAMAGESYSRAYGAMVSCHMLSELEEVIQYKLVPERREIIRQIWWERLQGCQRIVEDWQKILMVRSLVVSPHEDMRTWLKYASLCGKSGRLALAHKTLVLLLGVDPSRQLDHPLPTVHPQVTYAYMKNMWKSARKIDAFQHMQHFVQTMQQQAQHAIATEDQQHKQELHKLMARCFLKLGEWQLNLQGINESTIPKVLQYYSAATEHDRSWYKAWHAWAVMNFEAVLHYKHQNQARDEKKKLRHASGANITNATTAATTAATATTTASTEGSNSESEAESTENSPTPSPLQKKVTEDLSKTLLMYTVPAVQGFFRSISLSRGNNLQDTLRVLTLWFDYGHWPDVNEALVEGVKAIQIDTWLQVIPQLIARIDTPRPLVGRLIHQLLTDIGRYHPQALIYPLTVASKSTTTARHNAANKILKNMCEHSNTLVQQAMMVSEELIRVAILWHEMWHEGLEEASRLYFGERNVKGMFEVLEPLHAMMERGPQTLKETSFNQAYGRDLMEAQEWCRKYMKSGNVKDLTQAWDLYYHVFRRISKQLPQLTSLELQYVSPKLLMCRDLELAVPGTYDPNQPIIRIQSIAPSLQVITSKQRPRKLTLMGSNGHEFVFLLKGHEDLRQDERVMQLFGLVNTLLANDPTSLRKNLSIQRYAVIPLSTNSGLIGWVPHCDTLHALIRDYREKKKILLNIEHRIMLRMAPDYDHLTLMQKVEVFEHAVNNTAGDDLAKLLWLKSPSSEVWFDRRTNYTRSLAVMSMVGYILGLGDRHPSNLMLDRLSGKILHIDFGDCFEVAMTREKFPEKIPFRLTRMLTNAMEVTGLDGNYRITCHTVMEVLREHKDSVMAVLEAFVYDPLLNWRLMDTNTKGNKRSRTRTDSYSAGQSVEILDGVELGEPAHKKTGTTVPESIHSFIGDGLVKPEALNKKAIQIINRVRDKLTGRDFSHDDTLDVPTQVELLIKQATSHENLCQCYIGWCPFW

Broadly, the IC50 is the concentration that gives 50% inhibition. High values mean weaker potency, low ones greater potency. Take `CC(C)NCCOc1ncc(-c2cc3c4c(cnc3cc2F)N(C)C(=O)C42CCC2)cc1NS(C)(=O)=O` [Compound 569, N-(5-(7′-Fluoro-3′-methyl-2′-oxo-2′,3′-dihydrospiro[cyclobutane-1,1′-pyrrolo[2,3-c]quinolin]-8′-yl)-2-(2-(isopropylamino)ethoxy)pyridin-3-yl)methanesulfonamide]: the IC50 in assay [1] is 0.00063 µM; in assay [2] it was 0.016 µM.

Consider `CC(C)NCCOc1ncc(-c2cc3c(cc2F)ncc2c3[C@]3(C[C@H](OCc4ccccc4)C3)C(=O)N2C)cc1NS(C)(=O)=O` [Compound 572, cis-N-(5-(3-(Benzyloxy)-7′-fluoro-3′-methyl-2′-oxo-2′,3′-dihydrospiro[cyclobutane-1,1′-pyrrolo[2,3-c]quinolin]-8′-yl)-2-(2-(isopropylamino)ethoxy)pyridin-3-yl)methanesulfonamide], for which the IC50 is greater than 0.1 µM in assay [3], 0.00032 µM in assay [1] and 0.023 µM in assay [2].

On to `CC(C)NCCOc1ncc(-c2cc3c4c(cnc3cc2F)N(C)C(=O)C42CN(C(C)C)C2)cc1NS(C)(=O)=O` [Compound 571, N-(5-(7′-Fluoro-1-isopropyl-3′-methyl-2′-oxo-2′,3′-dihydrospiro[azetidine-3,1′-pyrrolo[2,3-c]quinolin]-8′-yl)-2-(2-(isopropylamino)ethoxy)pyridin-3-yl)methanesulfonamide], for which the half-maximal inhibitory concentration (IC50) in assay [3] is greater than 0.1 µM; in assay [1], 0.00067 µM and 0.00094 µM; in assay [2] it was 0.062 µM.

As to `CC[C@H]1C[C@@]2(C1)C(=O)N(C)c1cnc3cc(F)c(-c4cnc(OCCNC(C)C)c(NS(C)(=O)=O)c4)cc3c12` [Compound 566, trans-N-(5-(3-Ethyl-7′-fluoro-3′-methyl-2′-oxo-2′,3′-dihydrospiro[cyclobutane-1,1′-pyrrolo[2,3-c]quinolin]-8′-yl)-2-(2-(isopropylamino)ethoxy)pyridin-3-yl)methanesulfonamide], the half-inhibitory concentration (IC50) in assay [3] is greater than 0.1 µM; in assay [1], 0.00103 µM; in assay [2], greater than 0.1 µM.

For `CCS(=O)(=O)Nc1cc(-c2cc3c4c(cnc3cc2F)N(C)C(=O)C42CCC2)cnc1OCCNC(C)C` [Compound 570, N-(5-(7′-Fluoro-3′-methyl-2′-oxo-2′,3′-dihydrospiro[cyclobutane-1,1′-pyrrolo[2,3-c]quinolin]-8′-yl)-2-(2-(isopropylamino)ethoxy)pyridin-3-yl)ethanesulfonamide], the IC50 is greater than 0.1 µM in assay [3], 0.00063 µM in assay [1] and 0.021 µM in assay [2].

`CC(C)NCCOc1ncc(-c2cc3c(cc2F)ncc2c3[C@]3(C[C@@H](OCc4ccccc4)C3)C(=O)N2C)cc1NS(C)(=O)=O` [Compound 567, trans-N-(5-(3-(Benzyloxy)-7′-fluoro-3′-methyl-2′-oxo-2′,3′-dihydrospiro[cyclobutane-1,1′-pyrrolo[2,3-c]quinolin]-8′-yl)-2-(2-(isopropylamino)ethoxy)pyridin-3-yl)methanesulfonamide]: the IC50 in assay [3] was greater than 0.1 µM; in assay [1], 0.0027 µM; in assay [2], greater than 0.1 µM.

Turning to `CC[C@H]1C[C@]2(C1)C(=O)N(C)c1cnc3cc(F)c(-c4cnc(OCCNC(C)C)c(NS(C)(=O)=O)c4)cc3c12` [Compound 573, cis-N-(5-(3-Ethyl-7′-fluoro-3′-methyl-2′-oxo-2′,3′-dihydrospiro[cyclobutane-1,1′-pyrrolo[2,3-c]quinolin]-8′-yl)-2-(2-(isopropylamino)ethoxy)pyridin-3-yl)methanesulfonamide], the IC50 in assay [3] is greater than 0.1 µM; in assay [1], 0.0003 µM; in assay [2], 0.018 µM.

As for `CN1C(=O)C2(CCC2)c2c1cnc1ccc(-c3cnc(N4CC(N(C)C)C4)c(NS(C)(=O)=O)c3)cc21` [Compound 574, N-(2-(3-(Dimethylamino)azetidin-1-yl)-5-(3′-methyl-2′-oxo-2′,3′-dihydrospiro[cyclobutane-1,1′-pyrrolo[2,3-c]quinolin]-8′-yl)pyridin-3-yl)methanesulfonamide hydrochloride], the IC50 in assay [3] is 0.0199 µM; in assay [1] it was 0.00103 µM; in assay [2], 0.00012 µM.

Take `CC(C)NCCOc1ncc(-c2cc3c4c(cnc3cc2F)N(C)C(=O)C42CCC2)cc1NS(=O)(=O)C(C)C` [Compound 568, N-(5-(7′-Fluoro-3′-methyl-2′-oxo-2′,3′-dihydrospiro[cyclobutane-1,1′-pyrrolo[2,3-c]quinolin]-8′-yl)-2-(2-(isopropylamino)ethoxy)pyridin-3-yl)propane-2-sulfonamide]: the concentration for half-maximal inhibition (IC50) was greater than 0.1 µM in assay [3], 0.00079 µM in assay [1] and 0.018 µM in assay [2].
